Columns and labels:
[1] = molecular target: TEM-1 β-lactamase enzyme (Escherichia coli, UniProt P62593); assay: β-lactamase inhibitory activity: 50% inhibition of β-lactam hydrolysis, TEM-1; type: biochemical
[2] = molecular target: P. mirabilis β-lactamase enzyme; assay: β-lactamase inhibitory activity: 50% inhibition of β-lactam hydrolysis, P. mirabilis; type: biochemical; conditions: read-out: I50 (concentration required to achieve 50% inhibition of β-lactam hydrolysis)
[3] = molecular target: BC II β-lactamase enzyme (Bacillus cereus, UniProt P04190); assay: β-lactamase inhibitory activity: 50% inhibition of β-lactam hydrolysis, BC II; type: biochemical
Sequence of BC II β-lactamase enzyme (P04190 31-257): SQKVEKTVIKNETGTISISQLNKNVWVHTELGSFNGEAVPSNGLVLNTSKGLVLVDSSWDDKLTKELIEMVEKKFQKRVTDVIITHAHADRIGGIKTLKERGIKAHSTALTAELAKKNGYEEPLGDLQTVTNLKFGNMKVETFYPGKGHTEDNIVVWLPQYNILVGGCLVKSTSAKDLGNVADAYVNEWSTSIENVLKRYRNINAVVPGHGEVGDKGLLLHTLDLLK

[4] = molecular target: P99 β-lactamase enzyme (Enterobacter cloacae, UniProt P05364); assay: biochemical
Sequence of P99 β-lactamase enzyme (P05364 21-381): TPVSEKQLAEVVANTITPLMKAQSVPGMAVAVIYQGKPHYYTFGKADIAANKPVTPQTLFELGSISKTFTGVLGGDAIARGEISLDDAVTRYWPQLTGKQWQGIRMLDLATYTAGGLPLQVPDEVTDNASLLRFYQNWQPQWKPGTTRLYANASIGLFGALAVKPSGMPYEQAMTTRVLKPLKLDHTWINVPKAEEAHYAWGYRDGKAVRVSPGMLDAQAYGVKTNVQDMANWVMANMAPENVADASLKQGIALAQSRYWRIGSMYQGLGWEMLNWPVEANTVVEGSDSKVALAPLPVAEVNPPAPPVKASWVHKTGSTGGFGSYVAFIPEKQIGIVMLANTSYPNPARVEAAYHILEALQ

[5] = molecular target: PC1 β-lactamase enzyme (Staphylococcus aureus, UniProt P00807); assay: biochemical
Sequence of PC1 β-lactamase enzyme (P00807 25-281): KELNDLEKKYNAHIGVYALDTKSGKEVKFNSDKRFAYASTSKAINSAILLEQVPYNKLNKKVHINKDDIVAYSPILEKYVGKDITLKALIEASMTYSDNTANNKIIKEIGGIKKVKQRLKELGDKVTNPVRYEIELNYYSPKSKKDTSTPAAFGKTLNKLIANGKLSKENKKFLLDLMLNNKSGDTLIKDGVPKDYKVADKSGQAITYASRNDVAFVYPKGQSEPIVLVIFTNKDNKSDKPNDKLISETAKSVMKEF

[6] = molecular target: OXA-1 β-lactamase enzyme (Escherichia coli, UniProt P13661); assay: biochemical
Sequence of OXA-1 β-lactamase enzyme (P13661 26-276): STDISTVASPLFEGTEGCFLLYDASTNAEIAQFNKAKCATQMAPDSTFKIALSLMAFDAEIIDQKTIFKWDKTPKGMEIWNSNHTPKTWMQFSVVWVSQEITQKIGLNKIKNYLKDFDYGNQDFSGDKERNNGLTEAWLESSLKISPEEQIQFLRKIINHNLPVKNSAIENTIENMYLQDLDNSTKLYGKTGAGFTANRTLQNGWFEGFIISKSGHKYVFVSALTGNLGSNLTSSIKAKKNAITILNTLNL

Sequence of TEM-1 β-lactamase enzyme (P62593 24-286 limits assumed): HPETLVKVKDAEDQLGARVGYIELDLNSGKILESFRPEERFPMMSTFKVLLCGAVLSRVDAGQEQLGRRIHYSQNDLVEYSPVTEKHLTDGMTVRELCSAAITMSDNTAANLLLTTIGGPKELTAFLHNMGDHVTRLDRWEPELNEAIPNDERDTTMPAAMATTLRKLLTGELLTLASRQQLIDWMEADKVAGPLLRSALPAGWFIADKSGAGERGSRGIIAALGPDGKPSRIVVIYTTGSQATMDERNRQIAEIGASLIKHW

O=C(O)C1=CS[C@@H]2/C(=C\c3cn4c(n3)SCC4)C(=O)N12 [Example 1, Sodium (5R)-6[(Z)-(2,3-dihydroimidazo[2,1-b]thiazol-6-yl)methylene]-penem-3-carboxylate]
IC50 [1]: 10 nM | IC50 [2]: 10 nM | IC50 [3]: 48600 nM | IC50 [4]: < 5 nM | IC50 [5]: 10 nM | IC50 [6]: 10 nM

From US6600035B1, “6-(substituted methylene) penems and intermediates” (SMithKline Beecham p.l.c., priority 1992, dated 2003)
